Measurements: patent US20240218022A1, “ANTI-VISTA MACROCYCLIC PEPTIDES AND COMPOSITIONS” (BRISTOL-MYERS SQUIBB COMPANY, priority 2022, published 2024)
Starred links: 1 amine or outer side, 2 acyl side, 3 side chain; linkers in the order of their positions; H or OH if unused. Positions of bridges follow the written chain, without caps; N, C: chain ends. Non-standard residues stand in square brackets, D forms with d. Residues, ends and D or L forms follow the SMILES beside them. ξ: configuration not given here. γGlu = O=C(O)[C@H](CCC(=O)[*:2])N[*:1]; NMeThr(3ξ) = CN[C@H](C(=O)O)C(C)O; NMeL = CN[C@@H](CC(C)C)C(=O)O; Ahp(2) = CCCCC[C@H](N)C(=O)O; NMeNle = CCCC[C@H](NC)C(=O)O; Tle = CC(C)(C)[C@H](N)C(=O)O; NMeV = CN[C@H](C(=O)O)C(C)C; NHexGly = CCCCCCNCC(=O)O; Orn = NCCC[C@H](N)C(=O)O; Aun = NCCCCCCCCCCC(=O)O; AEEA = NCCOCCOCC(=O)O

Target: T1, mouse VISTA (mVISTA) (Mus musculus, UniProt Q9D659)
T1 construct: expressed in transfected cells; host or cells: Human embryonic kidney 293T cells
T1 sequence (Q9D659 33-308): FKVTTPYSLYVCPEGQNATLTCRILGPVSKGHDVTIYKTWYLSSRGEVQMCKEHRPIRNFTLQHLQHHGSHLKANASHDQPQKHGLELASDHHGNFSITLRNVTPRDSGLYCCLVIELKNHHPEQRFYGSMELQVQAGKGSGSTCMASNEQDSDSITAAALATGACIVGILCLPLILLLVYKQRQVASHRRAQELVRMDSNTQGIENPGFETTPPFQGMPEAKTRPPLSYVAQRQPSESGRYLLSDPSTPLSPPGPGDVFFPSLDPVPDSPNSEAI
Experiment: Cell-Based Binding High-Content Assay For mVISTA (HC CBA mVISTA)
Settings: read-out: HC CBA mVISTA IC50
Method in brief: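 This high-content binding assay uses HEK293T cells expressing murine VISTA, measuring displacement of 2 nM biotinylated peptide by fluorescent streptavidin imaging. IC50 values come from four-parameter logistic fitting.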

SMILES	IC50 [nM]
CCCCCCN1CC(=O)N[C@@H](Cc2ccc(O)cc2)C(=O)N[C@@H](CC(C)C)C(=O)N[C@@H](CC(N)=O)C(=O)N[C@@H](CCCNC(=N)N)C(=O)N(C)[C@@H](C(C)C)C(=O)N[C@@H](CCCCC)C(=O)N2CCC[C@H]2C(=O)N[C@@H](C(C)(C)C)C(=O)N[C@@H](CO)C(=O)N[C@H](C(=O)NCCOCCOCC(=O)N[C@@H](CCC(=O)NCCOCCOCC(=O)NCCCCCCCCCCC(=O)O)C(=O)O)CSCC(=O)N[C@@H](Cc2ccccc2)C(=O)N[C@@H](Cc2ccc(O)cc2)C(=O)N[C@@H](CC(=O)O)C1=O [compound 2271] ({CH2CO}-FYD[NHexGly]YLNR[NMeV][Ahp(2)]P[Tle]SC[AEEA][γGlu][AEEA][Aun]-OH; thioether N-14)	25.4
CCCCCCN1CC(=O)N[C@@H](Cc2ccc(O)cc2)C(=O)N[C@@H](CC(C)C)C(=O)N[C@@H](CC(N)=O)C(=O)N[C@@H](CCCNC(=N)N)C(=O)N(C)[C@@H](C(C)C)C(=O)N[C@@H](CCCCC)C(=O)N2CCC[C@H]2C(=O)N[C@@H](C(C)(C)C)C(=O)N[C@@H](CO)C(=O)N[C@H](C(=O)NCCOCCOCC(=O)N[C@@H](CCC(=O)NCCOCCOCC(=O)NCCCCCCCCCCC(=O)O)C(=O)O)CSCC(=O)N[C@@H](Cc2ccccc2)C(=O)N[C@@H](Cc2c[nH]c3ccccc23)C(=O)N[C@@H](CC(=O)O)C1=O [compound 2272] ({CH2CO}-FWD[NHexGly]YLNR[NMeV][Ahp(2)]P[Tle]SC[AEEA][γGlu][AEEA][Aun]-OH; thioether N-14)	34.4
CCCCCCN1CC(=O)N[C@@H](Cc2ccc(O)cc2)C(=O)N[C@@H](CC(C)C)C(=O)N[C@@H](CC(N)=O)C(=O)N[C@@H](CCCNC(=N)N)C(=O)N(C)[C@@H](C(C)C)C(=O)N[C@@H](CCCCC)C(=O)N2CCC[C@H]2C(=O)N[C@@H](C(C)(C)C)C(=O)N[C@@H](CC(=O)O)C(=O)N[C@H](C(=O)NCCOCCOCC(=O)N[C@@H](CCC(=O)NCCOCCOCC(=O)NCCCCCCCCCCC(=O)O)C(=O)O)CSCC(=O)N[C@@H](Cc2ccccc2)C(=O)N[C@@H](Cc2ccc(O)cc2)C(=O)N[C@@H](CC(=O)O)C1=O [compound 2274] ({CH2CO}-FYD[NHexGly]YLNR[NMeV][Ahp(2)]P[Tle]DC[AEEA][γGlu][AEEA][Aun]-OH; thioether N-14)	18.8
CCCCCCN1CC(=O)N[C@@H](Cc2ccc(O)cc2)C(=O)N[C@@H](CC(C)C)C(=O)N[C@@H](CC(N)=O)C(=O)N[C@@H](CCCNC(=N)N)C(=O)N(C)[C@@H](C(C)O)C(=O)N[C@@H](CCCCC)C(=O)N2CCC[C@H]2C(=O)N[C@@H](C(C)(C)C)C(=O)N[C@@H](CC(=O)O)C(=O)N[C@H](C(=O)NCCOCCOCC(=O)N[C@@H](CCC(=O)NCCOCCOCC(=O)NCCCCCCCCCCC(=O)O)C(=O)O)CSCC(=O)N[C@@H](Cc2ccccc2)C(=O)N[C@@H](Cc2ccc(O)cc2)C(=O)N[C@@H](CC(=O)O)C1=O (stereo partly shown) [compound 2275] ({CH2CO}-FYD[NHexGly]YLNR[NMeThr(3ξ)][Ahp(2)]P[Tle]DC[AEEA][γGlu][AEEA][Aun]-OH; thioether N-14)	31.8
CCCCCCN1CC(=O)N[C@@H](Cc2ccc(O)cc2)C(=O)N[C@@H](CC(C)C)C(=O)N[C@@H](CC(N)=O)C(=O)N[C@@H](CCCNC(=N)N)C(=O)N(C)[C@@H](CCCC)C(=O)N[C@@H](CCCCC)C(=O)N2CCC[C@H]2C(=O)N[C@@H](C(C)(C)C)C(=O)N[C@@H](C(C)C)C(=O)N[C@H](C(=O)NCCOCCOCC(=O)N[C@@H](CCC(=O)NCCOCCOCC(=O)NCCCCCCCCCCC(=O)O)C(=O)O)CSCC(=O)N[C@@H](Cc2ccccc2)C(=O)N[C@@H](Cc2ccc(O)cc2)C(=O)N[C@@H](CC(=O)O)C1=O [compound 2277] ({CH2CO}-FYD[NHexGly]YLNR[NMeNle][Ahp(2)]P[Tle]VC[AEEA][γGlu][AEEA][Aun]-OH; thioether N-14)	21.2
CCCCCCN1CC(=O)N[C@@H](Cc2ccc(O)cc2)C(=O)N[C@@H](CC(C)C)C(=O)N[C@@H](CC(N)=O)C(=O)N[C@@H](CCCN)C(=O)N(C)[C@@H](CCCC)C(=O)N[C@@H](CCCCC)C(=O)N2CCC[C@H]2C(=O)N[C@@H](C(C)(C)C)C(=O)N[C@@H](C(C)C)C(=O)N[C@H](C(=O)NCCOCCOCC(=O)N[C@@H](CCC(=O)NCCOCCOCC(=O)NCCCCCCCCCCC(=O)O)C(=O)O)CSCC(=O)N[C@@H](Cc2ccccc2)C(=O)N[C@@H](Cc2ccc(O)cc2)C(=O)N[C@@H](CC(=O)O)C1=O [compound 2279] ({CH2CO}-FYD[NHexGly]YLN[Orn][NMeNle][Ahp(2)]P[Tle]VC[AEEA][γGlu][AEEA][Aun]-OH; thioether N-14)	28.6
CCCCCCN1CC(=O)N[C@@H](Cc2ccc(O)cc2)C(=O)N[C@@H](CC(C)C)C(=O)N[C@@H](CC(N)=O)C(=O)N[C@@H](CCCNC(=N)N)C(=O)N(C)[C@@H](CCCC)C(=O)N[C@@H](CCCCC)C(=O)N2CCC[C@H]2C(=O)N[C@@H](C(C)(C)C)C(=O)N[C@@H](C(C)C)C(=O)N[C@H](C(=O)NCCOCCOCC(=O)N[C@@H](CCC(=O)NCCOCCOCC(=O)NCCCCCCCCCCC(=O)O)C(=O)O)CSCC(=O)N[C@@H](Cc2ccccc2)C(=O)N[C@@H](Cc2c[nH]c3ccccc23)C(=O)N[C@@H](CC(=O)O)C1=O [compound 2281] ({CH2CO}-FWD[NHexGly]YLNR[NMeNle][Ahp(2)]P[Tle]VC[AEEA][γGlu][AEEA][Aun]-OH; thioether N-14)	31.3

More lines, in order of falling IC50, values ahead:

IC50 [nM]	SMILES
45.5	CCCCCCN1CC(=O)N[C@@H](Cc2ccc(O)cc2)C(=O)N[C@@H](CC(C)C)C(=O)N[C@@H](CC(N)=O)C(=O)N[C@@H](CCCN)C(=O)N(C)[C@@H](CCCC)C(=O)N[C@@H](CCCCC)C(=O)N2CCC[C@H]2C(=O)N[C@@H](C(C)(C)C)C(=O)N[C@@H](CO)C(=O)N[C@H](C(=O)NCCOCCOCC(=O)N[C@@H](CCC(=O)NCCOCCOCC(=O)NCCCCCCCCCCC(=O)O)C(=O)O)CSCC(=O)N[C@@H](Cc2ccccc2)C(=O)N[C@@H](Cc2c[nH]c3ccccc23)C(=O)N[C@@H](CC(=O)O)C1=O [compound 2280] ({CH2CO}-FWD[NHexGly]YLN[Orn][NMeNle][Ahp(2)]P[Tle]SC[AEEA][γGlu][AEEA][Aun]-OH; thioether N-14)
33.6	CCCCCCN1CC(=O)N[C@@H](Cc2ccc(O)cc2)C(=O)N[C@@H](CC(C)C)C(=O)N[C@@H](CC(N)=O)C(=O)N[C@@H](CCCNC(=N)N)C(=O)N(C)[C@@H](C(C)O)C(=O)N[C@@H](CCCCC)C(=O)N2CCC[C@H]2C(=O)N[C@@H](C(C)(C)C)C(=O)N[C@@H](CC(=O)O)C(=O)N[C@H](C(=O)NCCOCCOCC(=O)N[C@@H](CCC(=O)NCCOCCOCC(=O)NCCCCCCCCCCC(=O)O)C(=O)O)CSCC(=O)N[C@@H](Cc2ccccc2)C(=O)N[C@@H](Cc2c[nH]c3ccccc23)C(=O)N[C@@H](CC(=O)O)C1=O (stereo partly shown) [compound 2273] ({CH2CO}-FWD[NHexGly]YLNR[NMeThr(3ξ)][Ahp(2)]P[Tle]DC[AEEA][γGlu][AEEA][Aun]-OH; thioether N-14)
30	CCCCCCN1CC(=O)N[C@@H](Cc2ccc(O)cc2)C(=O)N[C@@H](CC(C)C)C(=O)N[C@@H](CC(N)=O)C(=O)N[C@@H](CCCNC(=N)N)C(=O)N(C)[C@@H](C(C)C)C(=O)N[C@@H](CCCCC)C(=O)N2CCC[C@H]2C(=O)N[C@@H](C(C)(C)C)C(=O)N[C@@H](CC(=O)O)C(=O)N[C@H](C(=O)NCCOCCOCC(=O)N[C@@H](CCC(=O)NCCOCCOCC(=O)NCCCCCCCCCCC(=O)O)C(=O)O)CSCC(=O)N[C@@H](Cc2ccccc2)C(=O)N[C@@H](Cc2c[nH]c3ccccc23)C(=O)N[C@@H](CC(=O)O)C1=O [compound 2276] ({CH2CO}-FWD[NHexGly]YLNR[NMeV][Ahp(2)]P[Tle]DC[AEEA][γGlu][AEEA][Aun]-OH; thioether N-14)
28.2	CCCCCCN1CC(=O)N[C@@H](Cc2ccc(O)cc2)C(=O)N[C@@H](CC(C)C)C(=O)N[C@@H](CC(N)=O)C(=O)N[C@@H](CCCNC(=N)N)C(=O)N(C)[C@@H](CC(C)C)C(=O)N[C@@H](CCCCC)C(=O)N2CCC[C@H]2C(=O)N[C@@H](C(C)(C)C)C(=O)N[C@@H](CC(=O)O)C(=O)N[C@H](C(=O)NCCOCCOCC(=O)N[C@@H](CCC(=O)NCCOCCOCC(=O)NCCCCCCCCCCC(=O)O)C(=O)O)CSCC(=O)N[C@@H](Cc2ccccc2)C(=O)N[C@@H](Cc2c[nH]c3ccccc23)C(=O)N[C@@H](CC(=O)O)C1=O [compound 2269] ({CH2CO}-FWD[NHexGly]YLNR[NMeL][Ahp(2)]P[Tle]DC[AEEA][γGlu][AEEA][Aun]-OH; thioether N-14)
28.2	CCCCCCN1CC(=O)N[C@@H](Cc2ccc(O)cc2)C(=O)N[C@@H](CC(C)C)C(=O)N[C@@H](CC(N)=O)C(=O)N[C@@H](CCCN)C(=O)N(C)[C@@H](CCCC)C(=O)N[C@@H](CCCCC)C(=O)N2CCC[C@H]2C(=O)N[C@@H](C(C)(C)C)C(=O)N[C@@H](CO)C(=O)N[C@H](C(=O)NCCOCCOCC(=O)N[C@@H](CCC(=O)NCCOCCOCC(=O)NCCCCCCCCCCC(=O)O)C(=O)O)CSCC(=O)N[C@@H](Cc2ccccc2)C(=O)N[C@@H](Cc2ccc(O)cc2)C(=O)N[C@@H](CC(=O)O)C1=O [compound 2278] ({CH2CO}-FYD[NHexGly]YLN[Orn][NMeNle][Ahp(2)]P[Tle]SC[AEEA][γGlu][AEEA][Aun]-OH; thioether N-14)
18.8	CCCCCCN1CC(=O)N[C@@H](Cc2ccc(O)cc2)C(=O)N[C@@H](CC(C)C)C(=O)N[C@@H](CC(N)=O)C(=O)N[C@@H](CCCNC(=N)N)C(=O)N(C)[C@@H](CC(C)C)C(=O)N[C@@H](CCCCC)C(=O)N2CCC[C@H]2C(=O)N[C@@H](C(C)(C)C)C(=O)N[C@@H](CO)C(=O)N[C@H](C(=O)NCCOCCOCC(=O)N[C@@H](CCC(=O)NCCOCCOCC(=O)NCCCCCCCCCCC(=O)O)C(=O)O)CSCC(=O)N[C@@H](Cc2ccccc2)C(=O)N[C@@H](Cc2ccc(O)cc2)C(=O)N[C@@H](CC(=O)O)C1=O [compound 2270] ({CH2CO}-FYD[NHexGly]YLNR[NMeL][Ahp(2)]P[Tle]SC[AEEA][γGlu][AEEA][Aun]-OH; thioether N-14)
